Type in all cases: cell-based
The target in one assay is T1, MycN protein (Homo sapiens, UniProt P04198).
T1 construct: either 2×10^6 of L-363 (human leukemia cell line) or SKNBE2 (neuroblastoma cell line) cells; endogenous in cells; host or cells: SKNBE2 / SK-N-BE(2) neuroblastoma cells
T1 sequence (P04198 1-464): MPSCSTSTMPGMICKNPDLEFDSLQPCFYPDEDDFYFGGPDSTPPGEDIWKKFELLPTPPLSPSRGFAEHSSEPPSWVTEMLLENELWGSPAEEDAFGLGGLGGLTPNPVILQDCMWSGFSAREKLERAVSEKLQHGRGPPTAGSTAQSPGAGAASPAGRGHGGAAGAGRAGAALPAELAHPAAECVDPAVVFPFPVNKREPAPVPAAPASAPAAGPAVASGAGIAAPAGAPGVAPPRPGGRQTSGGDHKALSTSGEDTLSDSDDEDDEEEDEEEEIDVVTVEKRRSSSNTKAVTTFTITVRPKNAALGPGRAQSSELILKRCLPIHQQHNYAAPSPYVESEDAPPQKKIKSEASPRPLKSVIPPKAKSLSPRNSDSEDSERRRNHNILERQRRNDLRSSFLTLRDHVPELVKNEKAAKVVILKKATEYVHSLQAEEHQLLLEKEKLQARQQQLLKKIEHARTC
In words: Degradation of MycN protein, Western blot, SKNBE2 cells (Example 160). The method, then:
In a T150 flask was plated either 2×10^6 of L-363 (human leukemia cell line) or SKNBE2 (neuroblastoma cell line) cells in a total of 30 mL containing Roswell Park Memorial Institute (RPMI) 1640 Medium (Thermo Fisher, Cat. #11875-085), 10% Fetal Bovine Serum (FBS, Thermo Fisher: Cat. #10437-028), 1% Penicillin/streptomycin (Thermo Fisher: Cat. #10378016), and 1% Amophotericin B (Thermo Fisher, Cat. #15290026). The cells were split every 72 hours by reseeding the L-363 or SKNBE2 cells, and the passage number was noted. It is noteworthy that cell cultures that were above 40 passages were not used, and most experiments were done with cells of less than 30 passages.
In a 6-well cell culture plate, a total of 3 mL of either 1×10^6 cells/mL of L-363 or SKNBE2 cells were seeded, resulting in a total of 3×10^6 cells per well. To each well containing 3 mL of either L-363 or SKNBE2 cell line was added 6 uL of MycN modulating compound (1 mM) and the resulting plate was shaken from left to right, and not swirled. After 6 hours, the cells were placed in a 15 mL falcon tube and spun at 500 Gs at 4° C. in a swinging bucket centrifuge. The medium was then carefully removed without disturbing the pellet. The pellet was then washed with 3 mLs of chilled phosphate buffered saline (PBS) and subjected to the spin cycle. PBS was then removed and the pellet was lysed in 200 uL of radioimmunoprecipitation (RIPA) lysis buffer (Thermo Fisher: Cat. #899000) that is supplemented with protease and phosphatase inhibitors (Thermo Fisher: Cat. #A32959). The cell lysate was then subjected to spinning in a centrifuge for 10 minutes at 13000 G at 4° C. The supernatant was then carefully transferred to a fresh eppendorf tube without disturbing the pellet (˜180 uL). The protein concentration of the cell lysate was then determined by using a bicinchoninic acid (BCA assay) according to manufacturer's protocol (Thermo Fisher: Cat. #23227).
Cell lysate, approximately 25 ug-30 ug, was loaded per well in a 4-20% polyacrylamide gel (Biorad. Cat. #5671094). After running the dye front off of the gel, the gel was transferred to a nitrocellulose membrane (Biorad: Cat. #1704159) using the transblot turbo system (Biorad: Cat. #1704150) according to manufacturer's protocol. After transferring for 30 minutes, the membrane was blocked with 5% BSA for 1 hour at room temperature. The BSA was then washed off and the primary antibody of choice (1:500) was added, and the membrane was incubated with the primary antibody at 4° C. for overnight. The next morning, the primary antibody was removed and the membrane was washed with 1×-TBST for 10 minutes and repeated three more times. Following the last wash, a secondary antibody (Molecular Devices. Cat. #R8209 or R8208) was added at 1:5000 dilution and incubated for 1 hour at room temperature. Following the incubation with the secondary antibody, the membrane was washed with 1×-TBST for 10 minutes and repeated three more times. Following the last wash, the membrane was washed with de-ionized water twice and dried for at least two hours. Once the membrane is completely dry, the Molecular Devices Spectra Max western system was used to observe the bands. The western image was saved and the band density was measured with ImageJ software.
Background: In western blotting, separated proteins are transferred to a membrane and probed.

The target in another assay is T2, MycC protein (c-myc) (Homo sapiens, UniProt P01106).
T2 construct: either 2×10^6 of L-363 (human leukemia cell line) cells; endogenous in cells; host or cells: L-363 / L363 human leukemia cells
T2 sequence (P01106 whole entry): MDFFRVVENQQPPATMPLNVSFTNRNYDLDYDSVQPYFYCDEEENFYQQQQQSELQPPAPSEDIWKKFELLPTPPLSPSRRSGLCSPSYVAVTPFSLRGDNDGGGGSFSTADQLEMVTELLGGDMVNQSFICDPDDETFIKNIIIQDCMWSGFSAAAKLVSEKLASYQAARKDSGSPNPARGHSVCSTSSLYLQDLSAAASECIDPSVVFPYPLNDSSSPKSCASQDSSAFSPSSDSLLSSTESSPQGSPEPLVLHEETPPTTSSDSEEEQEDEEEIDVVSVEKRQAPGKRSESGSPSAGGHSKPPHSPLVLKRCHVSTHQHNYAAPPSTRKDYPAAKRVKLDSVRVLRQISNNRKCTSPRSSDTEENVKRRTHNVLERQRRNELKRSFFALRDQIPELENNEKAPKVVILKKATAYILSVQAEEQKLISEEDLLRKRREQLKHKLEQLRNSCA
In words: Degradation of MycC protein, 24 h treatment, JESS Western, L363 cells (Example 161). The conditions noted are these: L-363 cells. The method, then: (§1) For L363 cells (suspension), 1E6 cells were plated into each well of a 6 well plate. For SK-N-BE(2) cells (adherent), 5E5 cells were plated into each well of a 6 well dish. […] All compounds were diluted to 10 mM in DMSO. Cells were treated with the compound for 24 hrs, then for both cell types, media containing cells were removed from wells into a 15 ml centrifuge tube, and remaining adherent SK-N-BE(2) cells were also scraped from the wells into the appropriate tubes. Tubes were centrifuged, cells were washed with PBS then re-centrifuged to pellet cells. A RIPA buffer cocktail was added to the cells on ice for 5 mins. Cell lysates were clarified by centrifugation and stored at −80 degrees until required. BCA assay was performed on each lysate to determine the protein concentration.
(§2) For validation studies of antibodies, lysates and antibodies were used at a number of concentrations (Lysates: 2, 1, 0.2 mg/ml; Antibodies: 1 in 50, 1 in 200 dilution). Once an appropriate lysate concentration and antibody concentration was determined, samples were screened in the JESS technology (Protein Simple, San Jose, CA—https://www.proteinsimple.com/jess.html).
(§3) Target protein antibodies (n-myc and c-myc) were detected in the chemi-luminescence channel and loading controls (tubulin and GAPDH) were detected using a Near Infra Red (NIR) labeled secondary antibody.
(§4) For SK-N-EB2 adherent cells, 5E5 cells in 1.9 mls media were plated into 6 well dishes and incubated for 24 hrs. […] Cells were scrapped off the plate, centrifuged, washed with PBS, centrifuged, then a RIPA buffer cocktail added to the cells (100 ul), centrifuged and stored at −80 for later analysis. For L363 suspension cells, 1E6 cells were plated into […] (950 ul media) and incubated for 24 hrs. […] Cells were aspirated into tubes, centrifuged, washed with PBS, centrifuged, then a RIPA buffer cocktail added to the cells (100 ul), centrifuged and stored at −80 for later analysis.
(§5) For Western blot, a BCA (total protein) assay was run on all samples, these were then run in batches of 5 compounds plus control (DMSO) on each Western blot run—n-myc and c-myc were run in separate experiments in the chemiluminescence channel. Both tubulin and GAPDH were run as loading controls in all lanes in the near infra red channel.

The target in a further assay is T3, MycN protein (n-myc) (Homo sapiens, UniProt P04198).
T3 construct: either 2×10^6 of L-363 (human leukemia cell line) or SKNBE2 (neuroblastoma cell line) cells; endogenous in cells; host or cells: SKNBE2 / SK-N-BE(2) neuroblastoma cells
T3 sequence (P04198 1-464): T1 sequence (P04198 1-464)
Put plainly: Degradation of MycN protein, 24 h treatment, JESS Western, SK-N-BE(2) cells (Example 161). The conditions noted are these: SKNBE2 cells. The protocol: as §1, §2, §3, §4, §5

The term inhibition denotes the share of the control response that was lost under treatment. Consider `CN(c1nccc(Nc2cc(C3CC3)[nH]n2)n1)[C@H]1CC[C@H](NC(=O)N2Cc3ccccc3C2)CC1` [Compound 11, N-((1R,4R)-4-((4-((5-cyclopropyl-1H-pyrazol-3-yl)amino)pyrimidin-2-yl)(methyl)amino)cyclohexyl)isoindoline-2-carboxamide], for which, at MycN protein (SKNBE2, 6 h), the inhibition at 2 µM fell in the range of 50 to 79%.
At MycN protein (SKNBE2, 6 h), `CN(c1nccc(Nc2cc(C3CC3)[nH]n2)n1)[C@H]1CC[C@H](NC(=O)Cc2cccc(C(F)(F)F)c2)CC1` [Compound 104, N-((1R,4R)-4-((4-((5-cyclopropyl-1H-pyrazol-3-yl)amino)pyrimidin-2-yl)(methyl)amino)cyclohexyl)-2-(3-(trifluoromethyl)phenyl)acetamide] displayed an inhibition at 2 µM of 20 to 49%.
The compound `CN1CCN(C(=O)CN2CC3(CC(N(C)c4nccc(Nc5cc(C6CC6)[nH]n5)n4)C3)C2)CC1` [Compound 30, 2-(6-((4-((5-Cyclopropyl-1H-pyrazol-3-yl)amino)pyrimidin-2-yl)(methyl)amino)-2-azaspiro[3.3]heptan-2-yl)-1-(4-methylpiperazin-1-yl)ethan-1-one] returned an inhibition at 0.5 µM against MycC protein (c-myc) (0.5 μM) of 20 to 49%. The inhibition at 1 µM against MycC protein (c-myc) (1 μM) is 20 to 49%. On MycC protein (c-myc) (3 μM), the inhibition at 3 µM is less than 20%. On MycC protein (c-myc), this compound displayed an inhibition at 6 µM of less than 20%.
As for `CN(c1nccc(Nc2cc(C3CCCC3)[nH]n2)n1)[C@H]1CC[C@H](NC(=O)Cc2cccc(C(F)(F)F)c2)CC1` [Compound 103, N-((1R,4R)-4-((4-((5-cyclopentyl-1H-pyrazol-3-yl)amino)pyrimidin-2-yl)(methyl)amino)cyclohexyl)-2-(3-(trifluoromethyl)phenyl)acetamide], on MycN protein (SKNBE2, 6 h), the inhibition at 2 µM lay in the range of 50 to 79%.
On MycN protein (SKNBE2, 6 h), `CN(c1nccc(Nc2cc(C3CCCC3)[nH]n2)n1)[C@H]1CC[C@H](NC(=O)CC2Cc3ccccc3C2)CC1` [Compound 106, N-((1R,4R)-4-((4-((5-cyclopentyl-1H-pyrazol-3-yl)amino)pyrimidin-2-yl)(methyl)amino)cyclohexyl)-2-(2,3-dihydro-1H-inden-2-yl)acetamide] yielded an inhibition at 2 µM of 20 to 49%.
In the case of `CN(c1nccc(Nc2cc(C3CC3)[nH]n2)n1)C1CC2(C1)CN(S(=O)(=O)c1cn3c(n1)CCCC3)C2` [Compound 36, N4-(5-Cyclopropyl-1H-pyrazol-3-yl)-N2-methyl-N2-(2-((5,6,7,8-tetrahydroimidazo[1,2-a]pyridin-2-yl)sulfonyl)-2-azaspiro[3.3]heptan-6-yl)pyrimidine-2,4-diamine], on MycN protein (n-myc), the inhibition at 1 µM was less than 20%, the inhibition at 3 µM was less than 20% and the inhibition at 6 µM was less than 20%.
Regarding `CN(c1nccc(Nc2cc(C3CCCC3)[nH]n2)n1)C1CCC(CC(=O)NC2Cc3ccc(C#N)cc3C2)CC1` (stereo not drawn) [Compound 102, N-(5-cyano-2,3-dihydro-1H-inden-2-yl)-2-(4-((4-((5-cyclopentyl-1H-pyrazol-3-yl)amino)pyrimidin-2-yl)(methyl)amino)cyclohexyl)acetamide], the inhibition at 2 µM against MycN protein (6 h) was in the range of 80 to 100%.
In turn, `COCCOCCN1CC2(CC(N(C)c3nccc(Nc4cc(C5CC5)[nH]n4)n3)C2)C1` [Compound 22, N4-(5-Cyclopropyl-1H-pyrazol-3-yl)-N2-(2-(2-(2-methoxyethoxy)ethyl)-2-azaspiro[3.3]heptan-6-yl)-N2-methylpyrimidine-2,4-diamine] displayed an inhibition at 0.5 µM against MycN protein (n-myc) (0.5 μM) of less than 20%. At MycN protein (n-myc), this compound yielded an inhibition at 1 µM of 20 to 49%, an inhibition at 3 µM of 20 to 49% and an inhibition at 6 µM of 20 to 49%.
For `CN(c1nccc(Nc2cc(C3CC3)[nH]n2)n1)[C@H]1CC[C@H](NC(=O)Cc2cccc(C#N)c2)CC1` [Compound 114, 2-(3-cyanophenyl)-N-((1R,4R)-4-((4-((5-cyclopropyl-1H-pyrazol-3-yl)amino)pyrimidin-2-yl)(methyl)amino)cyclohexyl)acetamide], the inhibition at 2 µM at MycN protein (SKNBE2, 6 h) was in the range of 50 to 79%.
Same read-out and setting: the result for `CN(c1nccc(Nc2cc(C3CC3)[nH]n2)n1)[C@H]1CC[C@H](NC(=O)c2cccc(C(F)(F)F)c2)CC1` [Compound 107, N-((1R,4R)-4-((4-((5-cyclopropyl-1H-pyrazol-3-yl)amino)pyrimidin-2-yl)(methyl)amino)cyclohexyl)-3-(trifluoromethyl)benzamide] reads 50 to 79%.
As to `CN(c1nccc(Nc2cc(C3CC3)[nH]n2)n1)C1CC2(C1)CN(CC(=O)Nc1ccc(S(C)(=O)=O)cc1)C2` [Compound 24, 2-(6-((4-((5-Cyclopropyl-1H-pyrazol-3-yl)amino)pyrimidin-2-yl)(methyl)amino)-2-azaspiro[3.3]heptan-2-yl)-N-(4-(methylsulfonyl)phenyl)acetamide], the inhibition at 6 µM at MycC protein (c-myc) was in the range of 80 to 100%.
`CN(c1nccc(Nc2cc(C3CC3)[nH]n2)n1)[C@H]1CC[C@H](NC(=O)C2Cc3ccccc3C2)CC1` [Compound 101, N-((1R,4R)-4-((4-((5-cyclopropyl-1H-pyrazol-3-yl)amino)pyrimidin-2-yl)(methyl)amino)cyclohexyl)-2,3-dihydro-1H-indene-2-carboxamide]: the inhibition at 2 µM against MycN protein (SKNBE2, 6 h) was 50 to 79%.
With `CN(c1nccc(Nc2cc(C3CCCC3)[nH]n2)n1)[C@H]1CC[C@H](NC(=O)C2Cc3ccccc3C2)CC1` [Compound 105, N-((1R,4R)-4-((4-((5-cyclopentyl-1H-pyrazol-3-yl)amino)pyrimidin-2-yl)(methyl)amino)cyclohexyl)-2,3-dihydro-1H-indene-2-carboxamide], at MycN protein (SKNBE2, 6 h), the inhibition at 2 µM fell in the range of 50 to 79%.

Values taken from US20230322722A1, “MODULATORS OF MYC FAMILY PROTO-ONCOGENE PROTEIN” (Nalo Therapeutics, priority 2020, published 2023).
